In ChEMBL document CHEMBL1149889, “ent-Kaurane Diterpenoids from Isodon nervosus” (J Nat Prod, 2008) one finds IC50 data, which are given here for 20 compounds.

Format in all cases: functional, cell-based
In one experiment the test system is HepG2. Put plainly: Cytotoxicity against human HepG2 cells.
The test system of the next experiment is A549. Kind of experiment: Cytotoxicity against human A549 cells.
In another experiment the test system is K562. Kind of experiment: Cytotoxicity against human K562 cells.

On to `C=C1[C@@H]2C[C@H](O)[C@H]3[C@@]4(C)[C@H](C[C@H](OC(C)=O)[C@]3(C2)[C@@H]1O)C(C)(C)[C@@H](OC(C)=O)C[C@@H]4O` [ADENANTHIN E], for which the half-inhibitory concentration (IC50) with HepG2, in the experiment with A549 and with K562 was more than 100 µM throughout.
`C=C1[C@@H]2C[C@H](OC(C)=O)[C@H]3[C@]4(C)[C@@H](OC(C)=O)C[C@H](O)C(C)(C)[C@H]4C(=O)[C@H](OC(C)=O)[C@]3(C2)[C@@H]1O` [ADENANTHIN J]: the IC50 with HepG2, in the experiment with A549 and in the experiment with K562 was more than 100 µM each time.
`C=C1[C@@H]2C[C@H](OC(C)=O)[C@H]3[C@]4(C)[C@@H](OC(C)=O)C[C@H](O)C(C)(C)[C@H]4C(=O)[C@H](O)[C@]3(C2)[C@@H]1OC(C)=O` [ADENANTHIN K]: the concentration for half-maximal inhibition (IC50) with HepG2, in the experiment on A549 and with K562 was more than 100 µM in each case.
As for `C=C1C(=O)[C@]23C[C@H]1C[C@H](OC(C)=O)[C@H]2[C@]1(C)[C@@H](OC(C)=O)C[C@H](O)C(C)(C)[C@H]1C(=O)[C@@H]3OC(C)=O` [ADENANTHIN], the values for the concentration for half-maximal inhibition (IC50) in the experiment on HepG2, with A549 and with K562 were 0.32 µM, 8.07 µM and 1.05 µM, respectively.
Consider `C=C1C(=O)[C@]23C[C@H]1C[C@H](OC(C)=O)[C@H]2[C@]1(C)[C@@H](OC(C)=O)C[C@H](O)C(C)(C)[C@H]1[C@@H](OC(C)=O)[C@@H]3OC(C)=O` [CALCICOLIN A], for which the IC50 is 0.51 µM with HepG2, 12.2 µM in the experiment on A549 and 2.39 µM in the experiment with K562.
For the compound `C=C1C(=O)[C@]23C[C@H]1C[C@H](OC(C)=O)[C@H]2[C@@]1(C)[C@H](C(=O)[C@@H]3OC(C)=O)C(C)(C)[C@@H](O)C[C@@H]1O` [CALCICOLIN B], the IC50 with HepG2 is 0.52 µM; in the experiment with A549, 8.5 µM; in the experiment with K562, 1.55 µM.
For the compound `C=C1[C@@H]2C[C@H](O)[C@H]3[C@@]4(C)[C@H]([C@@H](O)[C@H](OC(C)=O)[C@]3(C2)[C@@H]1O)C(C)(C)[C@@H](OC(C)=O)C[C@@H]4O` [FORRESTIN B], the IC50 with HepG2, in the experiment on A549 and with K562 was more than 100 µM each time.
Take `C=C1[C@@H]2C[C@H](OC(C)=O)[C@H]3[C@]4(C)[C@@H](OC(C)=O)C[C@H](O)C(C)(C)[C@H]4[C@H](O)[C@H](OC(C)=O)[C@]3(C2)[C@@H]1O` [FORRESTIN C]: the concentration for half-maximal inhibition (IC50) in the experiment with HepG2, in the experiment on A549 and in the experiment with K562 was more than 100 µM each time.
Turning to `C=C1[C@@H]2C[C@H](OC(C)=O)[C@H]3[C@]4(C)[C@@H](OC(C)=O)C[C@H](O)[C@]5(C)C[C@@](O)([C@H]54)[C@H](OC(C)=O)[C@]3(C2)[C@@H]1OC(C)=O` [NERVONIN A], the concentration for half-maximal inhibition (IC50) with HepG2, in the experiment on A549 and in the experiment on K562 was more than 100 µM in each case.
As to `C=C1C(=O)[C@]23C[C@H]1C[C@H](OC(C)=O)[C@H]2[C@@]1(C)[C@H]([C@@H](OC(C)=O)[C@@H]3OC(C)=O)C(C)(C)[C@@H](O)C[C@@H]1O` [NERVONIN B], the half-maximal inhibitory concentration (IC50) turned out to be 1.16 µM in the experiment on HepG2, 1.53 µM in the experiment on A549 and 1.18 µM in the experiment on K562.
`C=C1[C@@H]2C[C@H](OC(C)=O)[C@H]3[C@@]4(C)[C@H](C(=O)[C@H](OC(C)=O)[C@]3(C2)[C@@H]1OC(C)=O)C(C)(C)[C@@H](O)C[C@@H]4O` [NERVONIN C]: the IC50 with HepG2, with A549 and with K562 was more than 100 µM each time.
Turning to `C=C1[C@@H]2C[C@H](OC(C)=O)[C@H]3[C@]4(C)[C@@H](OC(C)=O)C[C@H](O)C(C)(C)[C@H]4[C@@H](O)[C@H](OC(C)=O)[C@]3(C2)[C@@H]1OC(C)=O` [NERVONIN D], the half-maximal inhibitory concentration (IC50) in the experiment with HepG2, in the experiment on A549 and in the experiment on K562 was more than 100 µM throughout.
For the compound `C=C1[C@@H]2C[C@H](OC(C)=O)[C@H]3[C@]4(C)[C@@H](OC(C)=O)C[C@H](O)C(C)(C)[C@H]4C(=O)[C@H](O)[C@]3(C2)[C@@H]1O` [NERVONIN E], the IC50 with HepG2, in the experiment on A549 and in the experiment with K562 was more than 100 µM in each case.
For the compound `C=C1[C@@H]2C[C@H](O)[C@H]3[C@]4(C)[C@@H](OC(C)=O)C[C@H](O)C(C)(C)[C@H]4[C@@H](O)[C@H](OC(C)=O)[C@]3(C2)[C@@H]1O` [NERVONIN F], the IC50 in the experiment on HepG2, with A549 and in the experiment with K562 was more than 100 µM each time.
On to `C=C1[C@@H]2C[C@H](O)[C@H]3[C@]4(C)[C@@H](OC(C)=O)C[C@H](O)C(C)(C)[C@H]4[C@@H](OC(C)=O)[C@H](OC(C)=O)[C@]3(C2)[C@@H]1O` [NERVONIN G], for which the IC50 in the experiment with HepG2, in the experiment on A549 and in the experiment with K562 was more than 100 µM in each case.
On to `C=C1[C@@H]2C[C@H](OC(C)=O)[C@H]3[C@@]4(C)[C@H](C[C@H](OC(C)=O)[C@]3(C2)[C@@H]1O)C(C)(C)[C@@H](O)C[C@@H]4O` [NERVONIN H], for which the IC50 in the experiment with HepG2, in the experiment on A549 and with K562 was more than 100 µM each time.
With `C=C1[C@@H]2C[C@H](OC(C)=O)[C@H]3[C@@]4(C)[C@H]([C@@H](O)[C@H](OC(C)=O)[C@]3(C2)[C@@H]1O)C(C)(C)[C@@H](O)C[C@@H]4O` [NERVONIN I], the IC50 in the experiment with HepG2, with A549 and in the experiment on K562 was more than 100 µM throughout.
As to `C=C1[C@@H]2C[C@H](O)[C@@H]3[C@@](CC(=O)[C@@H]4C(C)(C)[C@@H](O)C[C@H](O)[C@]43C)(C2)[C@@H]1OC(C)=O` [NERVONIN J], the IC50 in the experiment on HepG2, in the experiment with A549 and in the experiment on K562 was more than 100 µM throughout.
For `C=C1[C@@H]2C[C@H](OC(C)=O)[C@H]3[C@]4(C)[C@@H](OC(C)=O)C[C@H](O)C(C)(C)[C@H]4C(=O)[C@H](OC(C)=O)[C@]3(C2)[C@@H]1OC(C)=O` [NERVOSANIN], the concentration for half-maximal inhibition (IC50) in the experiment with HepG2, with A549 and in the experiment with K562 was more than 100 µM each time.
As for `C=C1C(=O)[C@]23C[C@H]1C[C@H](OC(C)=O)[C@H]2[C@]1(C)[C@@H](OC(C)=O)C[C@H](O)C(C)(C)[C@H]1[C@@H](O)[C@@H]3OC(C)=O` [WEISIENSIN A], the IC50 in the experiment with HepG2 was 1.43 µM; in the experiment with A549, 1.88 µM; in the experiment on K562 it was 4.11 µM.

A word on the IC50: it is the concentration at which inhibition is half-maximal. The low end stands for greater potency, the high end for weaker potency.
